Measured values: ChEMBL document CHEMBL1201862, “PubChem BioAssay data set” (2004)
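A five-concentration, 48-hour dose response in 96-well plates underlies each endpoint, interpolated linearly between surrounding concentrations. At the GI50, growth is halved.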 Calls of active or inactive are those of the source. Rule as the data show it: active = GI50 up to about 1.1 µM and inactive = higher.

Experiments:
Assay in all cases: DTP human tumour cell line panel, 48 h
[1] = test system: 786-0
[2] = test system: ACHN
[3] = test system: COLO 205
[4] = test system: DU-145
[5] = test system: HOP-92
[6] = test system: HT-29
[7] = test system: K562
[8] = test system: KM12
[9] = test system: M14
[10] = test system: MDA-N
[11] = test system: NCI-H226
[12] = test system: NCI-H23
[13] = test system: NCI/ADR-RES
[14] = test system: OVCAR-8
[15] = test system: PC-3
[16] = test system: SF-268
[17] = test system: SK-MEL-28
[18] = test system: SW-620
[19] = test system: U-251
[20] = test system: NCI-H522

Measured: GI50

CCOC(=O)C(NC(=O)c1ccccc1)(c1ccc(S(=O)(=O)Nc2onc(C)c2C)cc1)C(F)(F)F (centres undefined)
inactive: [1] > 100 µM | [2] > 100 µM | [3] > 100 µM | [4] > 100 µM | [5] > 100 µM | [6] > 100 µM | [7] > 100 µM | [8] > 100 µM | [9] > 100 µM | [10] > 100 µM | [11] > 100 µM | [12] > 100 µM | [13] > 100 µM | [14] > 100 µM | [15] > 100 µM | [16] > 100 µM | [17] > 100 µM | [18] > 100 µM | [19] > 100 µM

O=CC(O)C(O)C(O)C(O)C(=O)NCCCCCCCCCCCCNC(=O)C(O)C(O)C(O)C(O)C=O (centres undefined)
inactive: [1] > 100 µM | [2] > 100 µM | [3] > 100 µM | [4] > 100 µM | [5] > 100 µM | [6] > 100 µM | [8] > 100 µM | [9] > 100 µM | [10] > 100 µM | [11] > 100 µM | [12] > 100 µM | [20] > 100 µM | [13] > 100 µM | [14] > 100 µM | [15] > 100 µM | [16] > 100 µM | [17] > 100 µM | [18] > 100 µM | [19] > 100 µM

CC[C@@]12CCCN3CC[C@]4(c5cccc(OC)c5N(C(C)=O)[C@@H]4CC1)[C@H]32 [ASPIDOSPERMINE]
inactive: [1] 80.5 µM | [2] > 100 µM | [3] > 100 µM | [4] > 100 µM | [5] 35.6 µM | [6] 21 µM | [8] 84.5 µM | [9] 36.5 µM | [10] 34.6 µM | [11] 93.8 µM | [12] > 100 µM | [20] 32.3 µM | [13] > 100 µM | [14] > 100 µM | [15] 43 µM | [16] > 100 µM | [17] 80.2 µM | [18] > 100 µM | [19] 94 µM

NCCCN1CCN(CCCNc2ccc3nnn4c5ccccc5c(=O)c2c34)CC1
inactive: [1] 9.06 µM | [2] 12.4 µM | [3] 4.07 µM | [4] 14.9 µM | [5] 18.8 µM | [6] 13.3 µM | [7] 8.07 µM | [9] 17.6 µM | [10] 16.2 µM | [12] 14.8 µM | [20] 11.3 µM | [13] 55 µM | [14] 20 µM | [15] 12.5 µM | [16] 31.3 µM | [17] > 100 µM | [18] 11 µM | [19] 24 µM

C=C1[C@H](OC(C)=O)[C@H]2[C@@H](OC(C)=O)[C@@H](C)C[C@]2(C)C(=O)[C@H](C)/C=C/C(C)(C)C(=O)[C@H](OCC(C)C)[C@H]1OC(C)=O
inactive: [1] > 25 µM | [2] > 25 µM | [3] 12.9 µM | [4] > 25 µM | [5] > 25 µM | [8] > 25 µM | [9] > 25 µM | [10] 14.4 µM | [11] > 25 µM | [12] > 25 µM | [20] > 25 µM | [13] > 25 µM | [14] > 25 µM | [15] > 25 µM | [16] > 25 µM | [18] > 25 µM | [19] > 25 µM

N#C/C(=C/n1c(=S)[nH]c2ccc([N+](=O)[O-])cc21)C(N)=O
inactive: [1] > 100 µM | [2] > 100 µM | [3] > 100 µM | [4] > 100 µM | [5] > 100 µM | [6] > 100 µM | [8] > 100 µM | [9] > 100 µM | [10] > 100 µM | [11] > 100 µM | [12] > 100 µM | [13] > 100 µM | [14] > 100 µM | [15] > 100 µM | [16] > 100 µM | [17] > 100 µM | [18] > 100 µM | [19] > 100 µM

CCCCCCCCCCCCCCCC[N+](C)(C)CCl
inactive: [1] 1.55 µM | [2] 2.66 µM | [3] 1.65 µM | [4] 3.78 µM | [5] 1.17 µM | [6] 1.59 µM | [7] 1.75 µM | [8] 1.46 µM | [9] 2.31 µM | [10] 3.72 µM | [11] 2.12 µM | [12] 4.19 µM | [13] 20.6 µM | [14] 2.61 µM | [15] 2.17 µM | [16] 2.74 µM | [17] 5.19 µM | [18] 2.69 µM | [19] 1.68 µM

COC(=O)C(CCCCN)NC(C)=O.Cc1ccc(C(=O)Nc2ccc(S(=O)(=O)O)c3cc(S(=O)(=O)O)cc(S(=O)(=O)O)c23)cc1NC(=O)c1cccc(NC(=O)Nc2cccc(C(=O)Nc3cc(C(=O)Nc4ccc(S(=O)(=O)O)c5cc(S(=O)(=O)O)cc(S(=O)(=O)O)c45)ccc3C)c2)c1
inactive: [1] > 50 µM | [2] > 50 µM | [3] > 50 µM | [4] > 50 µM | [5] > 50 µM | [6] > 50 µM | [7] > 50 µM | [8] > 50 µM | [9] > 50 µM | [10] > 50 µM | [11] > 50 µM | [12] > 50 µM | [13] > 50 µM | [14] > 50 µM | [15] > 50 µM | [16] > 50 µM | [17] > 50 µM | [18] > 50 µM | [19] > 50 µM

O=C(Oc1ccc2c(c1)CN(Cc1ccccc1)CO2)c1ccccc1
inactive: [1] 16.9 µM | [2] 18.8 µM | [3] 16.9 µM | [4] 17.9 µM | [5] 12.7 µM | [6] 18.5 µM | [7] 17.6 µM | [8] 20.7 µM | [9] 18 µM | [10] 16.8 µM | [12] 15.8 µM | [20] 7.06 µM | [13] 23.4 µM | [14] 16.7 µM | [15] 15.9 µM | [16] 17.3 µM | [17] 21.4 µM | [18] 22.8 µM | [19] 17.3 µM

Cc1[nH]c(=O)c2oc3cc4ccccc4cc3c2c1C(=O)O
inactive: [1] > 10 µM | [2] > 10 µM | [4] > 10 µM | [5] > 10 µM | [6] > 10 µM | [8] > 10 µM | [9] > 10 µM | [10] > 10 µM | [11] > 10 µM | [12] > 10 µM | [20] > 10 µM | [13] > 10 µM | [14] > 10 µM | [15] > 10 µM | [16] > 10 µM | [18] > 10 µM | [19] > 10 µM
